# Assay results reported in patent EP1547597A2, “Use of adatanserin for the treatment of neurodegenerative conditions” (Wyeth, priority 1999, dated 2001).
# Test system: rat hippocampal slices
# Experiment: Reduction of azide-induced ischemic efflux of glutamate in rat hippocampal slices
# Assay type: cell-based
# Details: versus control, statistically significant, read-out: reduction of glutamate release (azide-induced ischemic efflux of glutamate)
# Procedure: Adatanserin was evaluated for its ability to reduce the azide-induced ischemic efflux of glutamate in rat hippocampal slices. Three Krebs buffers were used in the experiments. Normal Krebs buffer consisted of a solution containing the following: (122 mM NaCl, 3 mM KCl, 24 mM NaHCO3, 10 mM glucose, 0.315 mM K2HPO4, 1.2 mM MgSO4, 4 mM CaCl2). Aglycemic Krebs buffer was similar to the normal buffer with the exception that glucose was not added. Ischemic Krebs buffer was the aglycemic solution which contained varying concentrations of sodium azide (0 - 30 mM).
# Rat hippocampi were dissected on a cold platform and suspended in ice cold oxygenated normal Krebs buffer. The tissue was cross-chopped at 350 microns on a Mcllwain tissue chopper, then resuspended and washed three times with ice cold normal Krebs buffer. […] Amino acid concentrations were analyzed with reverse phase HPLC on a catacholamine column (Keystone Scinetific, 150 x 3 mm) employing an 0.05 M acetate/methanol gradient. […] Amino acids were visualized by derivatization with naphthalene-2,3-dicarboxaldehyde and fluorimetric detection (Dawson, L. A. et al., Improved Temporal Resolution of Microdialysis Measurement of Glutamate and Aspartate Using Capillary Electrophoresis with Laser Induced Fluorescence Detection. J. Chromatogr. B 1997, 694, 1204-1212). […]
compound,measurement,setting,value
"O=C(NCCN1CCN(c2ncccn2)CC1)C12CC3CC(CC(C3)C1)C2 [adatanserin, N-[2-[4-(2-pyrimidinyl)-1-piperazinyl]ethyl]tricyclo[3.3.1.13,7]decane-1-carboxamide]",inhibition at 0.1 µM,adatanserin 100 nM,72%
same,inhibition at 1 µM,adatanserin 1000 nM (1 µM),71%
